Experimental findings from patent publication US10590078B2, “Sodium channel blockers” (Daewoong Pharmaceutical Co., Ltd., priority 2015, dated 2020) are described below.

pIC50: −log10 of the molar value.

human sodium ion channel 1.7 (hNav1.7), sequence (Q15858 whole entry): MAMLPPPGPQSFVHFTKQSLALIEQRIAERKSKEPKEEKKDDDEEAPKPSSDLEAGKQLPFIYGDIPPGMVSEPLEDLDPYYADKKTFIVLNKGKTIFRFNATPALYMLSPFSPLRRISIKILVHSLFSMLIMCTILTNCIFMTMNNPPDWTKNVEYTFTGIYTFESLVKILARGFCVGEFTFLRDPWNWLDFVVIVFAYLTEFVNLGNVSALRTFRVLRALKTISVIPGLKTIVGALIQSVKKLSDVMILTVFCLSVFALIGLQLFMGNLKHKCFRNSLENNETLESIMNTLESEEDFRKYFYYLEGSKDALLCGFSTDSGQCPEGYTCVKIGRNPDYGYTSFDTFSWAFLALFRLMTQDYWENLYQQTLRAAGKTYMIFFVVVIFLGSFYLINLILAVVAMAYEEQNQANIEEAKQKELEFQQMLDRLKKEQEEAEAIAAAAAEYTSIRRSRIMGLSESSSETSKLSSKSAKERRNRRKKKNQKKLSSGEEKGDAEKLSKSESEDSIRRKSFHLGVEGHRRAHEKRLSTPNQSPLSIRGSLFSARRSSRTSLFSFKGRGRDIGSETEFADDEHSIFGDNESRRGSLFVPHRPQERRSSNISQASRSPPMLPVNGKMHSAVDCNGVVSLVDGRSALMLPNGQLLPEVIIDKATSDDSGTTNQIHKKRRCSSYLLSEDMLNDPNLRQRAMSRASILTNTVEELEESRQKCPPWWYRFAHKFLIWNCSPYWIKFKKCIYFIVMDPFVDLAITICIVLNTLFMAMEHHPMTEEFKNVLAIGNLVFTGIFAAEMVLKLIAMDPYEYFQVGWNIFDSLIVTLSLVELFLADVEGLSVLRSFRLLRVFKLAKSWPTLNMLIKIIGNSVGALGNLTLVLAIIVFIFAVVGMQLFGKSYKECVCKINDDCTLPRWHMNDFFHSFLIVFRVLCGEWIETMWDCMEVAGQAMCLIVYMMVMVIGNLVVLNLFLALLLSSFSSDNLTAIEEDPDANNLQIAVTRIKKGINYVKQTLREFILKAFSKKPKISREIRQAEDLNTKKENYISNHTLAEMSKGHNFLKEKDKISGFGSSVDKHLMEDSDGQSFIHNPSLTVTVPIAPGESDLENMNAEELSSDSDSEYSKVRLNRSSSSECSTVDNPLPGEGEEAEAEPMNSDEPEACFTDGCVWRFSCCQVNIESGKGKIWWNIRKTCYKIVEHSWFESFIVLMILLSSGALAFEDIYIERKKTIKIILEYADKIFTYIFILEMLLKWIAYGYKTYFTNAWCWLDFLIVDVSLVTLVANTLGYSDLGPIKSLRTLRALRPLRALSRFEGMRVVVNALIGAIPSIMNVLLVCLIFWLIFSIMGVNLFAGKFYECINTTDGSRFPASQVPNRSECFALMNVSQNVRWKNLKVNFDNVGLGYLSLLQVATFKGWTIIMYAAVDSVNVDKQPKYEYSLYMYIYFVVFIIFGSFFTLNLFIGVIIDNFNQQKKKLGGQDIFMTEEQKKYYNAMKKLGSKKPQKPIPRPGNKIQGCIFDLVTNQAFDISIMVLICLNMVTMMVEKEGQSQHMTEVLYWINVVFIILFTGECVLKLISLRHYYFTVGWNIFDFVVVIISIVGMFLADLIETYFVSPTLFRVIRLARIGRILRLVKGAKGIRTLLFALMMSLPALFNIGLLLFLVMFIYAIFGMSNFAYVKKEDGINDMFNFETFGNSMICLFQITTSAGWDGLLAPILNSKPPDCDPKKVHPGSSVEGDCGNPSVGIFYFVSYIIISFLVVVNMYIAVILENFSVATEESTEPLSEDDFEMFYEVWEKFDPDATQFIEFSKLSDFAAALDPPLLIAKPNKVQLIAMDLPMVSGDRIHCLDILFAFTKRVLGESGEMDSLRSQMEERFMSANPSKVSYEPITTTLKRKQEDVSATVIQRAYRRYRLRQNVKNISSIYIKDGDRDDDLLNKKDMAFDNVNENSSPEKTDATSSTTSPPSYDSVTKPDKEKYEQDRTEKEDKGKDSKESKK

The first assay addresses human sodium ion channel 1.7 (hNav1.7) (Homo sapiens, UniProt Q15858). The experiment in a line: Blocking effect against sodium ion channel Nav1.7, IonFlux16 auto patch clamp in hNav1.7 HEK293 cells. Format: cell-based.
Settings: not given
One may read the pIC50 as the negative decadic logarithm of the IC50, by convention in mol/L. `CS(=O)(=O)NC(=O)c1cc(Cl)c(-n2cc(-c3ccc(C(F)(F)F)cc3)c3cc(Cl)cnc32)cc1F` [Example 188, 5-chloro-4-(5-chloro-3-(4-(trifluoromethyl)phenyl)-1H-pyrrolo[2,3-b]pyridin-1-yl)-2-fluoro-N-(methylsulfonyl)benzamide]: the pIC50 is 7.30.

Staying with this assay, now noted: hNav1.7 HEK293 cells; inhibition of peak current after 50 seconds treatment; eight concentrations; read-out: IC50.
Take `CS(=O)(=O)NC(=O)c1cc(Cl)c(-n2cc(-c3ccccc3F)c3cc(Cl)cnc32)cc1F` [Example 191, 5-chloro-4-(5-chloro-3-(2-fluorophenyl)-1H-pyrrolo[2,3-b]pyridin-1-yl)-2-fluoro-N-(methylsulfonyl)benzamide]: the negative-log IC50 (pIC50) was 6.96.

For `CS(=O)(=O)NC(=O)c1cc(Cl)c(-n2cc(-c3cc(Cl)ccc3F)c3cccnc32)cc1F` [Example 219, 5-chloro-4-(3-(5-chloro-2-fluorophenyl)-1H-pyrrolo[2,3-b]pyridin-1-yl)-2-fluoro-N-(methylsulfonyl)benzamide], the pIC50 is 6.52.

Consider `CS(=O)(=O)NC(=O)c1ccc(-n2nc(Cl)c3cc(OCc4ccccc4)ccc32)c(Cl)c1` [Example 44, 4-(5-(benzyloxy)-3-chloro-1H-indazol-1-yl)-3-chloro-N-(methylsulfonyl)benzamide], for which the pIC50 is 6.78.

Take `COc1ncccc1-c1nn(-c2cc(F)c(C(=O)NS(C)(=O)=O)cc2Cl)c2ccc(Cl)cc12` [Example 57, 5-chloro-4-(5-chloro-3-(2-methoxypyridin-3-yl)-1H-indazol-1-yl)-2-fluoro-N-(methylsulfonyl)benzamide]: the pIC50 is 6.91.

For the compound `CS(=O)(=O)NC(=O)c1cc(Cl)c(-n2nc(-c3cncc(Cl)c3)c3cc(Cl)ccc32)cc1F` [Example 51, 5-chloro-4-(5-chloro-3-(5-chloropyridin-3-yl)-1H-indazol-1-yl)-2-fluoro-N-(methylsulfonyl)benzamide], the pIC50 was 6.73.

Regarding `CCOC(=O)c1cnc(NC(=O)c2cc(Cl)c(-n3nc(-c4ccc(Cl)cc4F)c4cc(Cl)ccc43)cc2F)s1` [Example 296, ethyl 2-(5-chloro-4-(5-chloro-3-(4-chloro-2-fluorophenyl)-1H-indazol-1-yl)-2-fluorobenzamido)thiazole-5-carboxylate], the pIC50 is below 5.00.

With `CS(=O)(=O)NC(=O)c1cc(Cl)c(-n2nc(Cl)c3ccc(OCc4ccccc4)cc32)cc1F` [Example 45, 4-(6-(benzyloxy)-3-chloro-1H-indazol-1-yl)-5-chloro-2-fluoro-N-(methylsulfonyl)benzamide], the negative logarithm of the IC50 (pIC50) was 6.87.

Regarding `CS(=O)(=O)NC(=O)c1cc(Cl)c(-n2cc(Cl)c3cc(-c4cccc(F)c4)cnc32)cc1F` [Example 262, 5-chloro-4-(3-chloro-5-(3-fluorophenyl)-1H-pyrrolo[2,3-b]pyridin-1-yl)-2-fluoro-N-(methylsulfonyl)benzamide], the pIC50 is 6.68.

Consider `CS(=O)(=O)NC(=O)c1cc(Cl)c(-n2cc(-c3ccccc3C(F)(F)F)c3cccnc32)cc1F` [Example 216, 5-chloro-2-fluoro-N-(methylsulfonyl)-4-(3-(2-(trifluoromethyl)phenyl)-1H-pyrrolo[2,3-b]pyridin-1-yl)benzamide], for which the pIC50 was 6.43.

With `CS(=O)(=O)NC(=O)c1cc(Cl)c(-n2nc(-c3cc(F)ccc3F)c3cc(F)ccc32)cc1F` [Example 160, 5-chloro-4-(3-(2,5-difluorophenyl)-5-fluoro-1H-indazol-1-yl)-2-fluoro-N-(methylsulfonyl)benzamide], the pIC50 is 6.68.

For `CS(=O)(=O)NC(=O)c1cc(Cl)c(-n2ncc3cc(Cl)ncc32)cc1F` [Example 10, 5-chloro-4-(5-chloro-1H-pyrazolo[3,4-c]pyridin-1-yl)-2-fluoro-N-(methylsulfonyl)benzamide], the pIC50 is below 5.00.

In the case of `CS(=O)(=O)NC(=O)c1cc(Cl)c(-n2nc(-c3ccc(F)cc3F)c3cc(F)ccc32)cc1F` [Example 159, 5-chloro-4-(3-(2,4-difluorophenyl)-5-fluoro-1H-indazol-1-yl)-2-fluoro-N-(methylsulfonyl)benzamide], the negative-log IC50 (pIC50) was 7.00.

As to `CS(=O)(=O)NC(=O)c1cc(Cl)c(-n2cc(-c3ccc(Cl)cc3)c3cc(F)cnc32)cc1F` [Example 204, 5-chloro-4-(3-(4-chlorophenyl)-5-fluoro-1H-pyrrolo[2,3-b]pyridin-1-yl)-2-fluoro-N-(methylsulfonyl)benzamide], the pIC50 was 7.00.

With `CS(=O)(=O)NC(=O)c1cc(Cl)c(-n2nc(-c3ccc(F)cc3Cl)c3cc(F)ccc32)cc1F` [Example 158, 5-chloro-4-(3-(2-chloro-4-fluorophenyl)-5-fluoro-1H-indazol-1-yl)-2-fluoro-N-(methylsulfonyl)benzamide], the pIC50 is 7.10.

Regarding `CS(=O)(=O)NC(=O)c1cc(Cl)c(-n2nc(Cl)c3cc(OCCc4ccccc4)ccc32)cc1F` [Example 40, 5-chloro-4-(3-chloro-5-phenethoxy-1H-indazol-1-yl)-2-fluoro-N-(methylsulfonyl)benzamide], the pIC50 was 6.72.

Consider `CS(=O)(=O)NC(=O)c1cc(Cl)c(-n2nc(-c3ccc(F)c(F)c3)c3cc(F)ccc32)cc1F` [Example 161, 5-chloro-4-(3-(3,4-difluorophenyl)-5-fluoro-1H-indazol-1-yl)-2-fluoro-N-(methylsulfonyl)benzamide], for which the pIC50 was 6.92.

As to `CS(=O)(=O)NC(=O)c1cc(Cl)c(-n2nc(Cl)c3cc(F)ccc32)cc1F` [Example 17, 5-chloro-4-(3-chloro-5-fluoro-1H-indazol-1-yl)-2-fluoro-N-(methylsulfonyl)benzamide], the pIC50 was 6.32.

With `CS(=O)(=O)NC(=O)c1cc(Cl)c(-n2cc(-c3cccc(C#N)c3)c3cc(Cl)cnc32)cc1F` [Example 194, 5-chloro-4-(5-chloro-3-(3-cyanophenyl)-1H-pyrrolo[2,3-b]pyridin-1-yl)-2-fluoro-N-(methylsulfonyl)benzamide], the pIC50 was 6.32.

For `CS(=O)(=O)NC(=O)c1cc(Cl)c(-n2nc(Cl)c3cc(C4CC4)ccc32)cc1F` [Example 24, 5-chloro-4-(3-chloro-5-cyclopropyl-1H-indazol-1-yl)-2-fluoro-N-(methylsulfonyl)benzamide], the pIC50 was 6.55.

For the compound `CS(=O)(=O)NC(=O)c1ccc(-n2nc(-c3cccc(F)c3)c3cc(Cl)ccc32)c(C#N)c1` [Example 103, 4-(5-chloro-3-(3-fluorophenyl)-1H-indazol-1-yl)-3-cyano-N-(methylsulfonyl)benzamide], the negative-log IC50 (pIC50) is 5.66.

On to `CS(=O)(=O)NC(=O)c1cc(Cl)c(-n2nc(Cl)c3cc(-c4ccc(F)nc4F)ccc32)cc1F` [Example 246, 5-chloro-4-(3-chloro-5-(2,6-difluoropyridin-3-yl)-1H-indazol-1-yl)-2-fluoro-N-(methylsulfonyl)benzamide], for which the pIC50 is 5.98.

Regarding `O=S(=O)(Nc1cscn1)c1cc(Cl)c(-n2nc(-c3ccc(Cl)cc3F)c3cc(Cl)ccc32)cc1F` [Example 287, 5-chloro-4-(5-chloro-3-(4-chloro-2-fluorophenyl)-1H-indazol-1-yl)-2-fluoro-N-(thiazol-4-yl)benzenesulfonamide], the pIC50 was 5.08.

`Cc1cc(Cl)ccc1-c1ccc2c(c1)c(Cl)nn2-c1cc(F)c(C(=O)NS(C)(=O)=O)cc1Cl` [Example 253, 5-chloro-4-(3-chloro-5-(4-chloro-2-methylphenyl)-1H-indazol-1-yl)-2-fluoro-N-(methylsulfonyl)benzamide]: the pIC50 was 6.32.

Consider `CS(=O)(=O)NC(=O)c1cc(Cl)c(-n2nc(-c3ccc(C(F)(F)F)cc3)c3ccccc32)cc1F` [Example 178, 5-chloro-2-fluoro-N-(methylsulfonyl)-4-(3-(4-(trifluoromethyl)phenyl)-1H-indazol-1-yl)benzamide], for which the pIC50 is 6.48.

As for `CS(=O)(=O)NC(=O)c1cc(Cl)c(-n2nc(-c3cccnc3)c3cc(F)ccc32)cc1F` [Example 165, 5-chloro-2-fluoro-4-(5-fluoro-3-(pyridin-3-yl)-1H-indazol-1-yl)-N-(methylsulfonyl)benzamide], the pIC50 was 5.26.

In the case of `CS(=O)(=O)NC(=O)c1cc(F)c(-n2nc(-c3ccc(C(F)(F)F)cc3)c3cc(Cl)ccc32)cc1Cl` [Example 111, 2-chloro-4-(5-chloro-3-(4-(trifluoromethyl)phenyl)-1H-indazol-1-yl)-5-fluoro-N-(methylsulfonyl)benzamide], the pIC50 was 6.26.

Regarding `CS(=O)(=O)NC(=O)c1cc(Cl)c(-n2nc(-c3ccc(Cl)c(F)c3)c3cc(F)ccc32)cc1F` [Example 164, 5-chloro-4-(3-(4-chloro-3-fluorophenyl)-5-fluoro-1H-indazol-1-yl)-2-fluoro-N-(methylsulfonyl)benzamide], the negative logarithm of the IC50 (pIC50) was 6.66.

Regarding `CS(=O)(=O)NC(=O)c1cc(Cl)c(-n2nc(Cl)c3cc([N+](=O)[O-])ccc32)cc1F` [Example 23, 5-chloro-4-(3-chloro-5-nitro-1H-indazol-1-yl)-2-fluoro-N-(methylsulfonyl)benzamide], the pIC50 is 6.44.

Turning to `COc1ccc(-c2nn(-c3cc(F)c(C(=O)NS(C)(=O)=O)cc3Cl)c3ccc(Cl)cc23)cc1` [Example 59, 5-chloro-4-(5-chloro-3-(4-methoxyphenyl)-1H-indazol-1-yl)-2-fluoro-N-(methylsulfonyl)benzamide], the pIC50 was 6.97.

With `CS(=O)(=O)NC(=O)c1cc(Cl)c(-n2nc(-c3cccc(C(F)(F)F)c3)c3cc(Cl)ccc32)cc1F` [Example 64, 5-chloro-4-(5-chloro-3-(3-(trifluoromethyl)phenyl)-1H-indazol-1-yl)-2-fluoro-N-(methylsulfonyl)benzamide], the pIC50 is 7.03.

As for `CS(=O)(=O)NC(=O)c1cc(Cl)c(-n2nc(Cl)c3c(Cl)c(OCc4ccc(F)cc4)ccc32)cc1F` [Example 31, 5-chloro-4-(3,4-dichloro-5-((4-fluorobenzyl)oxy)-1H-indazol-1-yl)-2-fluoro-N-(methylsulfonyl)benzamide], the pIC50 is 5.82.

Regarding `COc1ccccc1-c1nn(-c2ccc(C(=O)NS(C)(=O)=O)cc2C#N)c2ccc(Cl)cc12` [Example 92, 4-(5-chloro-3-(2-methoxyphenyl)-1H-indazol-1-yl)-3-cyano-N-(methylsulfonyl)benzamide], the pIC50 is 5.28.
